Among the test systems are A498; ACHN; CAKI-1; HCC 2998; HCT-15; K562; KM12; M14; MDA-MB-231; MOLT-4; Malme-3M; NCI-H23; OVCAR-3; OVCAR-5; SK-MEL-2; SN12C; SNB-19; SW-620; UACC-62; HOP-92.
Common to all, as to experiment: DTP human tumour cell line panel, 48 h

SMILES strings stand for the structures.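 96-well plates; 48 h exposure; 5 concentrations. Endpoints by linear interpolation between flanking doses. Not reached: highest tested concentration assigned. Abbreviation: GI50, concentration required for 50% inhibition of growth.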 Activity calls are given as the source filed them. Rule as the data show it: active = GI50 up to about 1.1 µM and inactive = higher.

Take `COc1ccccc1/C=C/C1=NN(c2cccc(S(=O)(=O)O)c2)C2(C1)C(Cl)C(=O)N2c1nc2ccccc2s1` (stereo unspecified): the GI50 in the assay with A498 is > 81.3 µM (inactive); with ACHN it was 57.3 µM (inactive); with CAKI-1 it was 31.8 µM (inactive); with HCC 2998, > 91 µM (inactive); in the assay with HCT-15, 57.4 µM; in the assay on K562, 31.4 µM (inactive). Further, the GI50 was 51.6 µM (inactive) with KM12; > 75.3 µM (inactive) in the assay on M14; > 94.6 µM (inactive) in the assay on MDA-MB-231; 34 µM (inactive) in the assay on MOLT-4; > 100 µM (inactive) in the assay on Malme-3M; 31.9 µM (inactive) in the assay on NCI-H23. The GI50 in the assay on OVCAR-3 was 31.5 µM (inactive); in the assay on OVCAR-5, > 100 µM (inactive); in the assay with SK-MEL-2, > 100 µM (inactive); in the assay with SN12C, > 84.1 µM (inactive); with SNB-19, > 84.7 µM (inactive); with SW-620, > 100 µM (inactive). In the assay with UACC-62, the GI50 was 48.8 µM (inactive).
`COC(=O)C1CCC(=O)N1C(c1cc(OC)c(OC)c(OC)c1)c1cccc2ccccc12` (stereo unspecified): the GI50 is > 100 µM (inactive) with A498; > 100 µM (inactive) in the assay on ACHN; 71.1 µM in the assay on HCT-15; 38.2 µM (inactive) in the assay on HOP-92; 75.9 µM (inactive) in the assay with K562; > 100 µM (inactive) in the assay on KM12. Besides, the GI50 is > 100 µM (inactive) with M14; > 100 µM (inactive) in the assay on MDA-MB-231; 13.8 µM (inactive) with MOLT-4; > 100 µM (inactive) in the assay on OVCAR-3; > 100 µM (inactive) with OVCAR-5; > 100 µM (inactive) in the assay on SK-MEL-2. The GI50 is > 100 µM (inactive) with SN12C, > 100 µM (inactive) with SNB-19, > 100 µM (inactive) in the assay on SW-620 and 45 µM (inactive) in the assay on UACC-62.
With `C/C=C/C(C/C=C(\C)CO[Si](C)(C)C(C)(C)C)O[Si](C)(C)C(C)(C)C` (stereo unspecified), the GI50 was > 100 µM (inactive) in the assay on A498; > 100 µM (inactive) in the assay on ACHN; > 100 µM (inactive) with CAKI-1; > 100 µM (inactive) with HCC 2998; greater than 100 µM in the assay on HCT-15; > 100 µM (inactive) in the assay with K562. Moreover, the GI50 in the assay on KM12, with M14, in the assay on MDA-MB-231, in the assay on MOLT-4, in the assay with Malme-3M and in the assay with NCI-H23 was > 100 µM (inactive) each time. Moreover, the GI50 in the assay on OVCAR-3, in the assay on OVCAR-5, in the assay with SK-MEL-2, in the assay on SN12C, with SNB-19 and with SW-620 was > 100 µM (inactive) each time. Besides, the GI50 in the assay with UACC-62 is > 100 µM (inactive).
Take `Cc1cc(Cc2c(F)c(F)c(Cc3cc(C)no3)c(F)c2F)on1`: the GI50 is > 100 µM (inactive) in the assay on A498; > 100 µM (inactive) in the assay with ACHN; 12.2 µM (inactive) with CAKI-1; greater than 100 µM in the assay on HCT-15; 29 µM (inactive) in the assay with HOP-92; > 100 µM (inactive) with K562. Further, the GI50 in the assay on M14 was > 100 µM (inactive); with MDA-MB-231, 46.6 µM (inactive); in the assay on MOLT-4 it was > 100 µM (inactive); in the assay on Malme-3M, > 100 µM (inactive); with NCI-H23, 65.8 µM (inactive); in the assay on OVCAR-3, > 100 µM (inactive). For the same compound, the GI50 in the assay with OVCAR-5 is > 100 µM (inactive); with SK-MEL-2, 32.7 µM (inactive); with SN12C it was > 100 µM (inactive); in the assay with SNB-19, 36.7 µM (inactive); in the assay with UACC-62 it was > 100 µM (inactive).
Regarding `COC(=O)C(NC(=O)C12CCC(C)(C(=O)O1)C2(C)C)c1cc(C(C)(C)C)c(O)c(C(C)(C)C)c1` (stereo unspecified), the GI50 is > 100 µM (inactive) in the assay with A498; > 100 µM (inactive) in the assay with ACHN; > 100 µM (inactive) with CAKI-1; 91.2 µM with HCT-15; > 100 µM (inactive) in the assay with HOP-92; 64 µM (inactive) in the assay with K562. Further, the GI50 with KM12 is 23.5 µM (inactive); in the assay with M14 it was > 100 µM (inactive); in the assay with MDA-MB-231, > 100 µM (inactive); with MOLT-4, 42.2 µM (inactive); in the assay with Malme-3M it was > 100 µM (inactive); in the assay with NCI-H23, > 100 µM (inactive). For the same compound, the GI50 is > 100 µM (inactive) with OVCAR-3; > 100 µM (inactive) in the assay on OVCAR-5; > 100 µM (inactive) in the assay with SK-MEL-2; > 100 µM (inactive) with SNB-19; 77.3 µM (inactive) in the assay on SW-620; > 100 µM (inactive) in the assay with UACC-62.
On to `N#Cc1cccc2c1Sc1ccccc1N2`, for which the GI50 was 14.8 µM (inactive) in the assay on A498; 33.4 µM (inactive) in the assay on ACHN; 32.2 µM (inactive) with CAKI-1; 27 µM (inactive) in the assay with HCC 2998; 23.6 µM with HCT-15; 32.3 µM (inactive) with HOP-92. In addition, the GI50 in the assay on K562 was 17.4 µM (inactive); with KM12, 32.7 µM (inactive); with M14, 25.8 µM (inactive); in the assay with MDA-MB-231, 24.5 µM (inactive); in the assay on MOLT-4, 11.5 µM (inactive); in the assay with Malme-3M it was 41.6 µM (inactive). The GI50 was 21.2 µM (inactive) with NCI-H23; 57 µM (inactive) in the assay with OVCAR-3; 26.7 µM (inactive) in the assay on OVCAR-5; 39.2 µM (inactive) with SN12C; 33.1 µM (inactive) in the assay on SNB-19; 20.7 µM (inactive) in the assay with SW-620. Also, in the assay with UACC-62, the GI50 was 27.2 µM (inactive).
As for `O=C1C(O)=C(C(C2=C(O)C(=O)c3ccccc3C2=O)c2ccc(Cl)cc2)C(=O)c2ccccc21`, the GI50 in the assay with A498 was 18.4 µM (inactive); with ACHN, 6.46 µM (inactive); with CAKI-1, 9.4 µM (inactive); in the assay on HCT-15, 9.12 µM; in the assay with HOP-92 it was 14.3 µM (inactive); in the assay with K562, 15.2 µM (inactive). Also, the GI50 was 8.97 µM (inactive) in the assay on KM12; 9.59 µM (inactive) with M14; 3.15 µM (inactive) with MDA-MB-231; 4.56 µM (inactive) in the assay with MOLT-4; 5.25 µM (inactive) with Malme-3M; 4.85 µM (inactive) in the assay on NCI-H23. For the same compound, the GI50 with OVCAR-3 is 4.93 µM (inactive); with OVCAR-5 it was 7.93 µM (inactive); with SK-MEL-2 it was 8.36 µM (inactive); with SN12C it was 1.71 µM (inactive); in the assay on SNB-19 it was 19.5 µM (inactive); with SW-620 it was 4.69 µM (inactive). Besides, the GI50 in the assay on UACC-62 was 9.75 µM (inactive).
Consider `COc1cc(O)c(C(=O)/C=C/c2ccc(O)cc2)cc1Oc1ccc(/C=C/C(=O)c2ccc(O)cc2O)cc1` [RHUSCHALCONE III], for which the GI50 in the assay on A498 is 6.93 µM (inactive); with ACHN, 8.75 µM (inactive); in the assay on CAKI-1 it was 14.2 µM (inactive); with HCT-15 it was 8.85 µM; in the assay on HOP-92, 11.4 µM (inactive); with K562 it was 9.75 µM (inactive). Also, the GI50 is 6.75 µM (inactive) with KM12; 9.62 µM (inactive) in the assay with M14; 15 µM (inactive) in the assay with MDA-MB-231; 11.3 µM (inactive) in the assay on MOLT-4; 8.38 µM (inactive) in the assay with Malme-3M; 11.1 µM (inactive) in the assay on NCI-H23. Also, the GI50 with OVCAR-3 is 8.07 µM (inactive); in the assay with OVCAR-5, 13.7 µM (inactive); with SK-MEL-2, 10.1 µM (inactive); with SN12C, 8.81 µM (inactive); in the assay with SNB-19, 12.9 µM (inactive); in the assay with SW-620, 11.2 µM (inactive). Besides, in the assay with UACC-62, the GI50 is 8.61 µM (inactive).

As usually defined, the GI50 is the concentration giving 50% growth inhibition.
